Results taken from patent US20240239861A1, “GLUCAGON-RECEPTOR SELECTIVE POLYPEPTIDES AND METHODS OF USE THEREOF” (i2O Therapeutics, Inc., priority 2016, published 2024).
Where a SMILES comes first, the peptide text is derived from it. [ ]: non-standard residue; d: D form. Aib = CC(C)(N)C(=O)O

Assays:
human GCGR = human GCGR (Homo sapiens, UniProt P47871); test: Peptide-receptor mediated cAMP accumulation (LANCE Ultra cAMP) in CHO-K1 cells transfected with human GCGR; format: cell-based; details: Table 3
Chain of human GCGR (P47871 26-477): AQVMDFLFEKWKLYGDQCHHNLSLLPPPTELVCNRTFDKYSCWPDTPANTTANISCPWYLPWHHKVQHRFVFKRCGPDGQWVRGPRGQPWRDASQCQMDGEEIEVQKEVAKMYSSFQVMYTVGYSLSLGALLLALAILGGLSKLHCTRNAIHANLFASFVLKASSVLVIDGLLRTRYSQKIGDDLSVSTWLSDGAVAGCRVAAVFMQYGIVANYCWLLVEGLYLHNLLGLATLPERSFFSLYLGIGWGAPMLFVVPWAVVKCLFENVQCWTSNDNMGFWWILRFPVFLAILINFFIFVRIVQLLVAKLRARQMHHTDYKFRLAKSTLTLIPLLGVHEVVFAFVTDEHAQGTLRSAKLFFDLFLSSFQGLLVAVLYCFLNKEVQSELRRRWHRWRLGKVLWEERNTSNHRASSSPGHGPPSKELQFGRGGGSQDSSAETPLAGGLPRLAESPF

human GLP-1R = human GLP-1R (Homo sapiens, UniProt P43220); test: Peptide-receptor mediated cAMP accumulation (LANCE Ultra cAMP) in CHO-K1 cells transfected with human GLP-1R; format: cell-based; details: hGLP1 pEC50 (cAMP mean (n = 3): 11 point curve starting at 1 nM, Table 3)
Chain of human GLP-1R (P43220 24-463): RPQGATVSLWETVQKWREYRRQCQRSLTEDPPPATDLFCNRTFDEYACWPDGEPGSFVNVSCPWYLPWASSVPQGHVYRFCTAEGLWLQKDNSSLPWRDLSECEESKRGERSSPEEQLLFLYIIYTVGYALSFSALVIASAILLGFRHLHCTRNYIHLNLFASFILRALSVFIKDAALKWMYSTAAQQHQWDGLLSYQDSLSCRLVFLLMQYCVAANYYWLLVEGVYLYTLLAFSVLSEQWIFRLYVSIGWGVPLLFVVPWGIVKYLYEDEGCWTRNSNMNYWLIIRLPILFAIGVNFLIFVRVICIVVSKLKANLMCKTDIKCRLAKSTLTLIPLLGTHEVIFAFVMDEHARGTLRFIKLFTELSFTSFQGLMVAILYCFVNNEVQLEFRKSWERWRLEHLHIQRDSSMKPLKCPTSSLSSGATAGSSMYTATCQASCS

**Q.** CC(C)C[C@H](NC(=O)[C@H](Cc1ccc(O)cc1)NC(=O)[C@H](CCCCN)NC(=O)[C@H](CO)NC(=O)[C@H](Cc1ccc(O)cc1)NC(=O)[C@H](CC(=O)O)NC(=O)[C@H](CO)NC(=O)[C@@H](NC(=O)[C@H](Cc1ccccc1)NC(=O)[C@@H](NC(=O)CNC(=O)[C@H](Cc1c[nH]cn1)NC(=O)[C@H](CO)NC(=O)[C@@H](N)Cc1ccc(O)cc1)[C@@H](C)O)[C@@H](C)O)C(=O)N[C@@H](CC(=O)O)C(=O)NC(C)(C)C(=O)N[C@@H](C)C(=O)N[C@@H](CCCNC(=N)N)C(=O)N[C@@H](C)C(=O)N[C@@H](CCC(N)=O)C(=O)N[C@@H](CCC(=O)O)C(=O)N[C@@H](Cc1ccccc1)C(=O)N[C@H](C(=O)NC(C)(C)C(=O)N[C@@H](Cc1c[nH]c2ccccc12)C(=O)N[C@@H](CC(C)C)C(=O)N[C@@H](CCC(=O)O)C(=O)N[C@@H](CC(=O)O)C(=O)N[C@@H](CCC(=O)O)C(=O)N1CCC[C@H]1C(=O)N[C@@H](CCCCN)C(=O)N[C@@H](CO)C(=O)N[C@@H](CCCCN)C(=O)N[C@@H](CCC(=O)O)C(=O)N1CCC[C@H]1C(=O)N1CCC[C@H]1C(=O)N1CCC[C@H]1C(=O)N[C@@H](CO)C(N)=O)C(C)C [Compound A68] (H-YSHGTFTSDYSKYLD[Aib]ARAQEFV[Aib]WLEDEPKSKEPPPS-NH2; N-terminus assumed) was tested. Which EC50 (human GCGR) did it give?
**A.** 5.01 pM

**Q.** What about the EC50 (human GLP-1R) of the same compound?
**A.** > 1 nM

**Q.** Which EC50 (human GCGR) does the source give for CC(C)C[C@H](NC(=O)[C@H](Cc1ccc(O)cc1)NC(=O)[C@H](CCCCN)NC(=O)[C@H](CO)NC(=O)[C@H](Cc1ccc(O)cc1)NC(=O)[C@H](CC(=O)O)NC(=O)[C@H](CO)NC(=O)[C@@H](NC(=O)[C@H](Cc1ccccc1)NC(=O)[C@@H](NC(=O)CNC(=O)[C@H](Cc1c[nH]cn1)NC(=O)[C@H](CO)NC(=O)[C@@H](N)Cc1ccc(O)cc1)[C@@H](C)O)[C@@H](C)O)C(=O)N[C@@H](CC(=O)O)C(=O)N[C@@H](CO)C(=O)N[C@@H](C)C(=O)N[C@@H](CCCNC(=N)N)C(=O)N[C@@H](C)C(=O)N[C@@H](CCC(N)=O)C(=O)N[C@@H](CCC(=O)O)C(=O)N[C@@H](Cc1ccccc1)C(=O)N[C@H](C(=O)N[C@@H](CCCCN)C(=O)N[C@@H](Cc1c[nH]c2ccccc12)C(=O)N[C@@H](CC(C)C)C(=O)N[C@@H](CCC(=O)O)C(=O)N[C@@H](CC(=O)O)C(=O)N[C@@H](CCC(=O)O)C(=O)N1CCC[C@H]1C(=O)N[C@@H](CCCCN)C(=O)N[C@@H](CO)C(=O)N[C@@H](CCCCN)C(=O)N[C@@H](CCC(=O)O)C(=O)N1CCC[C@H]1C(=O)N1CCC[C@H]1C(=O)N1CCC[C@H]1C(=O)N[C@@H](CO)C(=O)O)C(C)C [Compound A69] (H-YSHGTFTSDYSKYLDSARAQEFVKWLEDEPKSKEPPPS-OH; N-terminus assumed) here?
**A.** 1.58 pM

**Q.** What about the EC50 (human GLP-1R) of the same compound?
**A.** > 1 nM

**Q.** CC(C)C[C@H](NC(=O)[C@H](Cc1ccc(O)cc1)NC(=O)[C@H](CCCCN)NC(=O)[C@H](CO)NC(=O)[C@H](Cc1ccc(O)cc1)NC(=O)[C@H](CC(=O)O)NC(=O)[C@H](CO)NC(=O)[C@@H](NC(=O)[C@H](Cc1ccccc1)NC(=O)[C@@H](NC(=O)CNC(=O)[C@H](Cc1c[nH]cn1)NC(=O)[C@H](CO)NC(=O)[C@@H](N)Cc1ccc(O)cc1)[C@@H](C)O)[C@@H](C)O)C(=O)N[C@@H](CC(=O)O)C(=O)N[C@@H](CO)C(=O)N[C@@H](C)C(=O)N[C@@H](CCCNC(=N)N)C(=O)N[C@@H](C)C(=O)N[C@@H](CCC(N)=O)C(=O)N[C@@H](CCC(=O)O)C(=O)N[C@@H](Cc1ccccc1)C(=O)N[C@H](C(=O)N[C@@H](CCCCN)C(=O)N[C@@H](Cc1c[nH]c2ccccc12)C(=O)N[C@@H](CC(C)C)C(=O)N[C@@H](CCC(=O)O)C(=O)N[C@@H](CC(=O)O)C(=O)N[C@@H](CCC(=O)O)C(=O)N1CCC[C@H]1C(=O)N[C@@H](CCCCN)C(=O)N[C@@H](CO)C(=O)N[C@@H](CCCCN)C(=O)N[C@@H](C)C(=O)N1CCC[C@H]1C(=O)N1CCC[C@H]1C(=O)N1CCC[C@H]1C(=O)N[C@@H](CO)C(=O)O)C(C)C [Compound A71] (H-YSHGTFTSDYSKYLDSARAQEFVKWLEDEPKSKAPPPS-OH; N-terminus assumed) was tested. Which EC50 (human GCGR) did it give?
**A.** 2 pM

**Q.** What about the EC50 (human GLP-1R) of the same compound?
**A.** > 1 nM

**Q.** How did the EC50 (human GCGR) turn out when CC(C)C[C@H](NC(=O)[C@H](Cc1ccc(O)cc1)NC(=O)[C@H](CCCCN)NC(=O)[C@H](CO)NC(=O)[C@H](Cc1ccc(O)cc1)NC(=O)[C@H](CC(=O)O)NC(=O)[C@H](CO)NC(=O)[C@@H](NC(=O)[C@H](Cc1ccccc1)NC(=O)[C@@H](NC(=O)CNC(=O)[C@H](Cc1c[nH]cn1)NC(=O)[C@H](CO)NC(=O)[C@@H](N)Cc1ccc(O)cc1)[C@@H](C)O)[C@@H](C)O)C(=O)N[C@@H](CC(=O)O)C(=O)N[C@@H](CO)C(=O)N[C@@H](C)C(=O)N[C@@H](CCCNC(=N)N)C(=O)N[C@@H](C)C(=O)N[C@@H](CCC(N)=O)C(=O)N[C@@H](CCC(=O)O)C(=O)N[C@@H](Cc1ccccc1)C(=O)N[C@H](C(=O)N[C@@H](CCCCN)C(=O)N[C@@H](Cc1c[nH]c2ccccc12)C(=O)N[C@@H](CC(C)C)C(=O)N[C@@H](CCC(=O)O)C(=O)N[C@@H](CC(=O)O)C(=O)N[C@@H](CCC(=O)O)C(=O)N1CCC[C@H]1C(=O)N[C@@H](CCCCN)C(=O)N[C@@H](CO)C(=O)N[C@@H](CCCCN)C(=O)N[C@@H](C)C(=O)N1CCC[C@H]1C(=O)N1CCC[C@H]1C(=O)N1CCC[C@H]1C(=O)N[C@@H](CO)C(N)=O)C(C)C [Compound A74] (H-YSHGTFTSDYSKYLDSARAQEFVKWLEDEPKSKAPPPS-NH2; N-terminus assumed) was run?
**A.** 2.51 pM

**Q.** And the EC50 (human GLP-1R)?
**A.** > 1 nM

**Q.** With CC(C)C[C@H](NC(=O)[C@H](Cc1ccc(O)cc1)NC(=O)[C@H](CCCCN)NC(=O)[C@H](CO)NC(=O)[C@H](Cc1ccc(O)cc1)NC(=O)[C@H](CC(=O)O)NC(=O)[C@H](CO)NC(=O)[C@@H](NC(=O)[C@H](Cc1ccccc1)NC(=O)[C@@H](NC(=O)CNC(=O)[C@H](Cc1c[nH]cn1)NC(=O)[C@H](CO)NC(=O)[C@@H](N)Cc1c[nH]c2ccccc12)[C@@H](C)O)[C@@H](C)O)C(=O)N[C@@H](CC(=O)O)C(=O)NC(C)(C)C(=O)N[C@@H](CCCCN)C(=O)N[C@@H](CCCNC(=N)N)C(=O)N[C@@H](C)C(=O)N[C@@H](CCC(N)=O)C(=O)N[C@@H](CCC(=O)O)C(=O)N[C@@H](Cc1ccccc1)C(=O)N[C@H](C(=O)NC(C)(C)C(=O)N[C@@H](Cc1c[nH]c2ccccc12)C(=O)N[C@@H](CC(C)C)C(=O)N[C@@H](CCC(=O)O)C(=O)N[C@@H](CC(=O)O)C(=O)N[C@@H](CCC(=O)O)C(=O)N1CCC[C@H]1C(=O)N[C@@H](CO)C(=O)N[C@@H](CO)C(=O)NCC(=O)N[C@@H](C)C(=O)N1CCC[C@H]1C(=O)N1CCC[C@H]1C(=O)N1CCC[C@H]1C(=O)N[C@@H](CO)C(=O)O)C(C)C [Compound A75] (H-WSHGTFTSDYSKYLD[Aib]KRAQEFV[Aib]WLEDEPSSGAPPPS-OH; N-terminus assumed) as the compound, how does the EC50 (human GCGR) read?
**A.** 5.01 pM

**Q.** And the EC50 (human GLP-1R)?
**A.** > 1 nM

**Q.** For CC(C)C[C@H](NC(=O)[C@H](Cc1ccc(O)cc1)NC(=O)[C@H](CCCCN)NC(=O)[C@H](CO)NC(=O)[C@H](Cc1ccc(O)cc1)NC(=O)[C@H](CC(=O)O)NC(=O)[C@H](CO)NC(=O)[C@@H](NC(=O)[C@H](Cc1ccccc1)NC(=O)[C@@H](NC(=O)CNC(=O)[C@H](Cc1c[nH]cn1)NC(=O)[C@H](CO)NC(=O)[C@@H](N)Cc1ccc(O)cc1)[C@@H](C)O)[C@@H](C)O)C(=O)N[C@@H](CC(=O)O)C(=O)NC(C)(C)C(=O)N[C@@H](CCCCN)C(=O)N[C@H](C(=O)N[C@@H](C)C(=O)N[C@@H](CCC(N)=O)C(=O)N[C@@H](CCC(=O)O)C(=O)N[C@@H](Cc1ccccc1)C(=O)N[C@H](C(=O)NC(C)(C)C(=O)N[C@@H](Cc1c[nH]c2ccccc12)C(=O)N[C@@H](CC(C)C)C(=O)N[C@@H](CCC(=O)O)C(=O)N[C@@H](CC(=O)O)C(=O)N[C@@H](CCC(=O)O)C(=O)N1CCC[C@H]1C(=O)N[C@@H](CO)C(=O)N[C@@H](CO)C(=O)NCC(=O)N[C@@H](C)C(=O)N1CCC[C@H]1C(=O)N1CCC[C@H]1C(=O)N1CCC[C@H]1C(=O)N[C@@H](CO)C(=O)O)C(C)C)[C@@H](C)O [Compound A77] (H-YSHGTFTSDYSKYLD[Aib]KTAQEFV[Aib]WLEDEPSSGAPPPS-OH; N-terminus assumed), which EC50 (human GCGR) is on record?
**A.** 3.16 pM

**Q.** What about the EC50 (human GLP-1R) of the same compound?
**A.** > 1 nM

**Q.** How did the EC50 (human GCGR) turn out when CC(C)C[C@H](NC(=O)[C@H](CCCCN)NC(=O)C(C)(C)NC(=O)[C@H](CC(=O)O)NC(=O)[C@H](CC(C)C)NC(=O)[C@H](Cc1ccc(O)cc1)NC(=O)[C@H](CCCCN)NC(=O)[C@H](CO)NC(=O)[C@H](Cc1ccc(O)cc1)NC(=O)[C@H](CC(=O)O)NC(=O)[C@H](CO)NC(=O)[C@@H](NC(=O)[C@H](Cc1ccccc1)NC(=O)[C@@H](NC(=O)CNC(=O)[C@H](Cc1c[nH]cn1)NC(=O)[C@H](CO)NC(=O)[C@@H](N)Cc1ccc(O)cc1)[C@@H](C)O)[C@@H](C)O)C(=O)N[C@@H](C)C(=O)N[C@@H](CCC(N)=O)C(=O)N[C@@H](CCC(=O)O)C(=O)N[C@@H](Cc1ccccc1)C(=O)N[C@H](C(=O)NC(C)(C)C(=O)N[C@@H](Cc1c[nH]c2ccccc12)C(=O)N[C@@H](CC(C)C)C(=O)N[C@@H](CCC(=O)O)C(=O)N[C@@H](CC(=O)O)C(=O)N[C@@H](CCC(=O)O)C(=O)N1CCC[C@H]1C(=O)N[C@@H](CO)C(=O)N[C@@H](CO)C(=O)NCC(=O)N[C@@H](C)C(=O)N1CCC[C@H]1C(=O)N1CCC[C@H]1C(=O)N1CCC[C@H]1C(=O)N[C@@H](CO)C(=O)O)C(C)C [Compound A78] (H-YSHGTFTSDYSKYLD[Aib]KLAQEFV[Aib]WLEDEPSSGAPPPS-OH; N-terminus assumed) was run?
**A.** 15.8 pM

**Q.** What about the EC50 (human GLP-1R) of the same compound?
**A.** > 1 nM
